According to ChEMBL document CHEMBL5113446, “Design, synthesis and biological evaluation of novel aminopropylcarboxamide derivatives as sigma ligands” (Bioorg Med Chem Lett, 2022):

Key:
SK-BR-3 [1] = assay: Cytotoxicity against ER/PR-negative HER2-positive human SK-BR-3 cells harbouring […] assessed as reduction in cell viability at 100 to 200 uM incubated for 48 hrs by resazurin dye based assay relative to control; assay type: functional; settings: dose 100-200 µM
MCF7 [2] = assay: Cytotoxicity against ER/PR-positive HER2-negative human MCF7 cells harbouring […] assessed as reduction in cell viability at 100 uM incubated for 48 hrs by resazurin dye based assay relative to control; assay type: functional
MCF7 [3] = assay: Cytotoxicity against ER/PR-positive HER2-negative human MCF7 cells harbouring […] assessed as inhibition of cell growth incubated for 48 hrs by resazurin dye based assay; assay type: functional; settings: MCF7, 48 h
SK-BR-3 [4] = assay: Cytotoxicity against ER/PR-negative HER2-positive human SK-BR-3 cells harbouring […] assessed as inhibition of cell growth incubated for 48 hrs by resazurin dye based assay; assay type: functional; settings: SK-BR-3, 48 h
Homo sapiens = organism: Homo sapiens; assay: Selectivity index, ratio of Ki for sigma 1 receptor (unknown origin) to Ki for sigma 2 receptor (unknown origin)
Mu-type opioid receptor = Mu-type opioid receptor (Homo sapiens, UniProt P35372); assay: Binding affinity to MOR (unknown origin) assessed as inhibition constant by radioligand binding assay
Mu-type opioid receptor, sequence (P35372 whole entry): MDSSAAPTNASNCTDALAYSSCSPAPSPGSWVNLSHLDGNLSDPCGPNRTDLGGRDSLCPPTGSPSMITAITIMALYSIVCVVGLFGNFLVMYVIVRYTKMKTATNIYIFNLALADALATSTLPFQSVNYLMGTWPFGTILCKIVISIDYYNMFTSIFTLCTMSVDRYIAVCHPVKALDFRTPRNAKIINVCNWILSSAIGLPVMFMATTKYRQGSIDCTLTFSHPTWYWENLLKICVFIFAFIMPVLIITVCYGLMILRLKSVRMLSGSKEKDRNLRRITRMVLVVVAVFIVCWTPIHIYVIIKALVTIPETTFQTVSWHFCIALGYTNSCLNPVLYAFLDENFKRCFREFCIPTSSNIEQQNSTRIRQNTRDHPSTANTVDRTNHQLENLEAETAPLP

[5] = molecular target: Sigma intracellular receptor 2 (Homo sapiens, UniProt Q5BJF2); assay: Binding affinity to sigma 2 receptor (unknown origin) assessed as inhibition constant by radioligand binding assay
Sigma intracellular receptor 2, sequence (Q5BJF2 whole entry): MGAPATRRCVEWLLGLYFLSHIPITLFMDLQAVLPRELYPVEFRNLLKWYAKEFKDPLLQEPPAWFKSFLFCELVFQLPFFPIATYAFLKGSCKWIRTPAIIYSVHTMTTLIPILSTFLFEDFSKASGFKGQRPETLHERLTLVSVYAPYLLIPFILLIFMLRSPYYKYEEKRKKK

[6] = molecular target: Delta-type opioid receptor (Homo sapiens, UniProt P41143); assay: Binding affinity to DOR (unknown origin) assessed as inhibition constant by radioligand binding assay
Delta-type opioid receptor, sequence (P41143 whole entry): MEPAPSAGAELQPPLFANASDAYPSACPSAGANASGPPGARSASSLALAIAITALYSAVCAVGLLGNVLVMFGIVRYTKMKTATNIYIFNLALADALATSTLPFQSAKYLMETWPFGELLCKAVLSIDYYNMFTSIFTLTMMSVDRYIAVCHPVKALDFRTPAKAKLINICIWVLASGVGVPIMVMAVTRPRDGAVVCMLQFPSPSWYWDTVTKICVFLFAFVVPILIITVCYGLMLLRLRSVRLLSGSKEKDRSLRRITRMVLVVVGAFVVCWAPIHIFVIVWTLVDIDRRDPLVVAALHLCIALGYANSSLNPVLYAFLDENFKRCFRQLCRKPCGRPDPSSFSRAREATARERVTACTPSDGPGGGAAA

[7] = molecular target: Kappa-type opioid receptor (Homo sapiens, UniProt P41145); assay: Binding affinity to KOR (unknown origin) assessed as inhibition constant by radioligand binding assay
Kappa-type opioid receptor, sequence (P41145 whole entry): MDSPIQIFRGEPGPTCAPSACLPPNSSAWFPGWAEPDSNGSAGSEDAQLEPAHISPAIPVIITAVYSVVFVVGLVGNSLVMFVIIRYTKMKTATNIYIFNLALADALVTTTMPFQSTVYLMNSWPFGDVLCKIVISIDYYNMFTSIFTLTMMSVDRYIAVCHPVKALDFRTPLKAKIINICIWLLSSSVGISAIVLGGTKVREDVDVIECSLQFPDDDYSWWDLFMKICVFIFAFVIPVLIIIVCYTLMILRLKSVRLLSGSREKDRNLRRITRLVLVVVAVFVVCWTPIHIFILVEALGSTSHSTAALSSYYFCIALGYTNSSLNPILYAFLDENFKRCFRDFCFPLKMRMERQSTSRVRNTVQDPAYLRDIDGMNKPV

[8] = molecular target: Sigma non-opioid intracellular receptor 1 (Homo sapiens, UniProt Q99720); assay: Binding affinity to sigma 1 receptor (unknown origin) assessed as inhibition constant by radioligand binding assay
Sigma non-opioid intracellular receptor 1, sequence (Q99720 whole entry): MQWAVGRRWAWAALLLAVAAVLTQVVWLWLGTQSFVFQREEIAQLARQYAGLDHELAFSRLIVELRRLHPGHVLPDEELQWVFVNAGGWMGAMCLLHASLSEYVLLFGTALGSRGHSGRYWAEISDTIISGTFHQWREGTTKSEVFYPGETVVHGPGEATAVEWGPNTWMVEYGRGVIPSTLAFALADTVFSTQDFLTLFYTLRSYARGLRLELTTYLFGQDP

| Ratio Ki (Homo sapiens) | Ki (Mu-type opioid receptor) | Ki [5] | Ki [6] | Ki [7] | Ki [8] | SMILES | Activity (SK-BR-3 [1]) | Activity (MCF7 [2]) | IC50 (MCF7 [3]) | IC50 (SK-BR-3 [4]) | IC50 (MCF7 [3]; read-out: IC50) |
| --- | --- | --- | --- | --- | --- | --- | --- | --- | --- | --- | --- |
| – | – | – | – | – | – | O=C(CCCN1CCC(O)(c2ccc(Cl)cc2)CC1)c1ccc(F)cc1 [HALOPERIDOL] | 48% | 79% | 68 µM | 131 µM | – |
| 0.7 | 2.76 µM | 0.021 µM | > 10 µM | 3.58 µM | 0.016 µM | CN(CCCNC(=O)c1ccc2ccccc2n1)Cc1ccccc1 | 50% | 30% | – | 169 µM | 1640 µM |
| 1.2 | 1.77 µM | 0.0099 µM | > 10 µM | 2.39 µM | 0.012 µM | CN(CCCNC(=O)c1cc2ccccc2o1)Cc1ccccc1 | 50% | <=50% | – | 52 µM | 86 µM |
| 1 | 3.43 µM | 0.106 µM | > 10 µM | > 10 µM | 0.104 µM | CN(CCCNC(=O)c1ccc2ccccc2c1)Cc1ccccc1 | – | – | – | – | – |
| 8.1 | 2.9 µM | 0.046 µM | > 10 µM | > 10 µM | 0.375 µM | COc1ccc(CN(C)CCCNC(=O)c2cc3ccccc3o2)cc1OC | <=60% | <=60% | – | 35 µM | 36 µM |
| – | > 10 µM | > 5 µM | > 10 µM | 4.17 µM | > 10 µM | COc1ccc(CN(C)CCCNC(=O)c2ccco2)cc1OC | – | – | – | – | – |
| 35 | 0.056 µM | 0.016 µM | > 10 µM | > 10 µM | 0.573 µM | COc1ccc(CN(C)CCCNC(=O)c2ccc3ccccc3n2)cc1OC | <=60% | <=50% | – | 88 µM | 251 µM |
| – | – | – | – | – | – | Fc1ccc(-n2cc(CCCCN3CCC4(CC3)OCc3ccccc34)c3ccccc32)cc1 [SIRAMESINE] | 98% | 96% | – | 14 µM | 13 µM |
| – | > 10 µM | 1.07 µM | > 10 µM | > 10 µM | > 10 µM | CN(CCCNC(=O)c1ccco1)Cc1ccccc1 | – | – | – | – | – |
| 11 | 1.22 µM | 0.126 µM | > 10 µM | > 10 µM | 1.44 µM | COc1ccc(CN(C)CCCNC(=O)c2ccc3ccccc3c2)cc1OC | – | – | – | – | – |
